# Data published in US20250268980A1, “AN ANTICANCER THERAPY TARGETING RAS AND OTHER ONCOGENIC SIGNALS BY INHIBITION OF DYNAMIC BLEBBING AND/OR SEPTINS” (THE BOARD OF REGENTS OF THE UNIVERSITY OF TEXAS SYSTEM, priority 2022, published 2025).
# Experiments:
# Type in all cases: cell-based, human
# [1] = system: A375 cells; assay: Detached/adhered viability assay, ethidium homodimer staining, A375; details: for anoikis resistance (cell death adhered vs detached): 24 hours
# Procedure: Bleb formation was inhibited using wheat germ agglutinin (WGA), a lectin that reduces plasma membrane deformability by crosslinking components of the glycocalyx. […] To investigate putative bleb function as a driver of anchorage-independent cell survival assays were designed that consistently minimized both cell-substrate and cell-cell attachment over a period of 24 hours. This was accomplished by seeding cells at very low density (approx. 250 or 100 cells/ml) in non-adherent culture dishes under constant gentle agitation. For controls, cells were grown at identical concentrations in adherent variants of the same culture dishes. Together, this generated pairs of ‘detached’ and ‘adhered’ cell populations in paired same-day experiments.
# Cell Culture and Reagents. MV3 cells were obtained from MD Anderson Cancer Center. A375 cells (ATCCR CRL1619) were acquired from ATCC. M498 cells were acquired from UT Southwestern.
# Detached/Adhered Cell Culture. […] Drug treatments, solvent-only controls, or CellEvent caspase activity sensor were added to suspensions if appropriate to the experiment, and then immediately transferred to both an uncoated (for detached cells) and ibiTreated (for adhered cells) 8-well ibidi u-slide (ibidi cat #80821 and 80826) at 200 μl/well. Both slides were stored at 37° C. and 5% CO2 for either 24 hours (hrs) for viability assays, 3 hrs for ERK activity assays or 4 hours for caspase activation assays. Uncoated slides (detached) were nutated at 20 rpm during this time. […] For experiments using MAPKi A375 cells, Dabrafenib and Trametinib treatment was continued over the course of the experiment.
# (§1) Cells Grown in VitroGel Coffins. VitroGel coffins were prepared by embedding MV3 or A375 cells in VitroGel 3D or RGD at 1:1 dilution according to manufacturer's instructions (TheWell Biosciences, sku #TWG001). […] A 1:1 solution of VitroGel and VitroGel Dilution Solution was made and added to cell suspension at a ratio of 4:1 (VitroGel: cells) using gentle pipetting until well-mixed (with care taken not to form bubbles). Cell/VitroGel solution was transferred to an 8-well uncoated ibidi μ-slide (ibidi cat #80821) at 100 μl/well, spread over the bottom of wells with a pipette tip, and allowed to polymerize at room temperature for 15 minutes. The remainder of the well was then filled with 10% FBS DMEM and slide was stored at 37° C. and 5% CO2 for either 24 hrs for viability assays, 3 hrs for ERK activity assays, or 1 hour for visualization of septins/PI3K activity.
# Viability, ERK Activity, and Caspase ActivityCell Counting Assays. Viability, ERK activity, and caspase activity assays were analyzed using live-cell fluorescent and phase-contrast microscopy, performed on a Nikon Ti microscope equipped with an environmental chamber held at 37° C. and 5% CO2 at 20× magnification. For viability assays, cells were stained with ethidium homodimer-1 (Invitrogen cat #E1169) at 4 µM and Hoechst (ThermoFisher cat #H3570) at 10 μg/ml for 15 minutes before imaging. Live and dead cells (as identified by significant cellular ethidium signal) were counted using the Cell Counter ImageJ plugin. For ERK activity assays, live cells carrying ERK-nKTR-GFP and H2B-mCherry were imaged after 3 hours of experimental conditions and high/low ERK activity cells were counted with Cell Counter ImageJ plugin. Cells in which nuclear GFP signals were by eye higher than cytoplasmic signal (“brighter” nucleus visible within “darker” cytoplasm) were labelled ERK low, while cytoplasmic signals equal to or higher than nuclear signal (nucleus indistinguishable from cytoplasm or “darker” nucleus within “brighter” cytoplasm) were labelled ERK high. To control for unconscious bias in making this determination, the identity of all ERK experimental groups were blinded from the analyst. […]
# [2] = system: MV3 melanoma cells; assay: 3D cell morphology analysis (blebs, surface curvature) of MV3 cells
# Procedure: (§2) Cells Embedded in 3D Collagen.
# (§3) 3D Light-Sheet Imaging. […] All images were saved in the OME-TIFF format.
# 3D Cell Image Analysis. Cell morphology and septin localization were analyzed principally via u-shape3D similar to the protocol described in Driscoll et al. Nature Methods. 16, 1037-1044 (2019), the disclosure of which is incorporated herein in its entirety. Briefly, 3D images were first deconvolved using either a Richardson-Lucy or Wiener algorithm with an experimentally measured point spread function. Cells were next segmented from the image background using u-shape3D's ‘twoLevel’ mode, which combines a straightforward Otsu threshold of the image to detect the outer cell surface with a blurred version of the image to segment the inside of the cell. The volume segmented from the blurred image was morphologically eroded to ensure the fidelity of the overall segmentation. Cell surfaces were then represented as triangle meshes, and the mean surface curvature at every triangle was calculated according to methods described in Driscoll et al. Nature Methods. 16, 1037-1044 (2019) and Elliott et al., Nat. […] To remove irregularities, the curvature was next smoothed in real space with a median filter of 1 pixel to remove infinities and then slightly diffused along the mesh. Septin and NRAS localization was measured from fluorescence images by extending a sphere of either 1 μm (for septins) or 2 μm (for NRAS) about each mesh triangle and mapping to the triangle the average intensity both within that sphere and the cell. Image intensity was not depth normalized prior to analysis, but was instead measured from the raw, undeconvolved image. […]
# Blebs were also detected according to methods similar to that described in Driscoll et al. Nature Methods. […] Distances from bleb edges were then calculated as the geodesic distance from each triangle to the nearest bleb edge. […] Bleb and septin directional correlations were calculated using spherical statistics, in particular by fitting spherical normal distributions to distributions defined at each mesh triangle.
# [3] = system: cortical septin structures in MV3 cells; assay: Cortical septin localization (SEPT6-GFP) in MV3 cells
# Procedure: as §2, §1, §3
# 3D Cell Image Analysis. Cell morphology and septin localization were analyzed principally via u-shape3D similar to the protocol described in Driscoll et al. Nature Methods. 16, 1037-1044 (2019), the disclosure of which is incorporated herein in its entirety. Briefly, 3D images were first deconvolved using either a Richardson-Lucy or Wiener algorithm with an experimentally measured point spread function. […] Cell surfaces were then represented as triangle meshes, and the mean surface curvature at every triangle was calculated according to methods described in Driscoll et al. Nature Methods. […] Septin and NRAS localization was measured from fluorescence images by extending a sphere of either 1 μm (for septins) or 2 μm (for NRAS) about each mesh triangle and mapping to the triangle the average intensity both within that sphere and the cell. Image intensity was not depth normalized prior to analysis, but was instead measured from the raw, undeconvolved image. […]
# Cortical septin levels were quantified by measuring the mean cytoplasmic intensity of each cell using hand-drawn ROIs that excluded nuclei (performed with the FIJI ImageJ package), and then calculating for each cell its fraction of cortical voxels (intracellular voxels within 0.96 μm of the u-Shape3D-derived surface) that were higher than that cell's mean cytoplasmic intensity (performed using a MATLAB script). NRAS enrichment at the surface was quantified by first calculating the total amount of intracellular signal expected to be within 0.96 μm of the surface if the cell's signal was homogenously distributed between all voxels, and then calculating the percent change between this value and the observed value for each cell. […]
Molecule,"viability ([1]; adhered A375 pre-incubated 48 hours with 10 nM Dabrafenib and 1 nM Trametinib, WGA)","cell death ([1]; detached A375 pre-incubated 48 hours with 10 nM Dabrafenib and 1 nM Trametinib, WGA)","anoikis resistance upon bleb inhibition ([1]; pre-stressed A375 cells (overconfluent for 48 hours), WGA)","cell death ([1]; unstressed A375 cells, adhered or detached, 24 hours of WGA)","bleb density (fraction of cell surface comprised of blebs) ([2]; MV3 cells, different concentrations of WGA, morphological motif analysis)",mean plasma membrane curvature above K=0.4 μm-1 ([2]; control vs WGA-treated MV3 cells),"cortical septin levels (fraction of cortical voxels above mean cytoplasmic SEPT6-GFP intensity) ([3]; MV3, relative to control conditions)","septin localization (cortical levels) ([3]; MV3 SEPT6-GFP, WGA (50 ug/ml), VitroGel, H1152 (1 μM), NSC668394 (10 μM))","anoikis resistance (cell death adhered vs detached) ([1]; non-stressed A375, 50 μM FCF)","anoikis resistance (cell death adhered vs detached) ([1]; pre-stressed A375, 50 μM FCF)","blebbiness ([2]; MV3, FCF treatment)","cortical septin structures ([3]; MV3 SEPT6-GFP, FCF treatment)"
wheat germ agglutinin [WGA],minimal change in viability,increased cell death,strongly dependent upon blebbing,unaffected,dosage dependent inhibitor of bleb density,reduced,significantly reduced cortical septin levels,"pronounced effects on septin localization, reducing cortical levels",–,–,–,–
"O=C(Nc1ccccc1)Nc1ccnc(Cl)c1 [FCF, forchlorfenuron]",–,–,–,–,–,–,–,–,no appreciable effect,greatly disrupted anoikis resistance,without altering blebbiness,near-complete ablation of cortical septin structures
